Laboratory results taken from US20260232767A1, “INTERLEUKIN-23 RECEPTOR ANTAGONIST PEPTIDES FOR USE IN THE TREATMENT OF PSORIASIS” (Janssen Pharmaceutica NV, priority 2023, published 2026).

System: subjects with moderate-to-severe plaque psoriasis
Assay: PASI response, Example 2 long-term extension to Week 52
Assay type: in vivo, human
Description: Described below is a multicenter, long-term extension (LTE), double-blind, dose-ranging, parallel group interventional study in participants from Example 1 to evaluate the long-term efficacy and safety of the hydrochloride salt of the compound of Formula (I) for the treatment of moderate-to-severe plaque psoriasis. Patients from Example 1 continued to receive the same dose of the compound of Formula (I) for an additional 36-week treatment period with a 4-week safety follow up period after the last administration of the compound of Formula (I). Patients randomized to placebo in Example 1 received the compound of Formula (I) at a dose of 100 mg QD starting at Week 16 of Example 1 (FIG. 21).
The primary efficacy endpoint is the proportion of participants achieving a PASI 75 response at Week 52, defined as at least a […] reduction from baseline PASI of Example 1. For primary analysis, composite strategy (non-responder imputation) was applied to address intercurrent event #1 (Discontinuation of study intervention due to lack of efficacy or due to an AE of worsening of psoriasis) and […] (initiation of a protocol-prohibited medication or therapy that could improve psoriasis); treatment policy strategy (observed data) was applied to intercurrent event #3 (Discontinuation of study intervention due to other reasons). Participants with missing data after application of ICEs are considered as non-responders.
Since there was no control arm (after week 16), in this primary analysis, only the proportion of participants who achieved a PASI75 response and its […] confidence interval at Week 52 were summarized for each intervention group.

[1] = Week 20, Placebo → 100 mg QD, N=35
[2] = Week 24, Placebo → 100 mg QD, N=35
[3] = Week 28, Placebo → 100 mg QD, N=35
[4] = Week 32, Placebo → 100 mg QD, N=35
[5] = Week 40, Placebo → 100 mg QD, N=35
[6] = Week 52, Placebo → 100 mg QD, N=35

Compound: CC(=O)NCCCC[C@@H]1NC(=O)[C@H](Cc2c[nH]c3c(C)cccc23)NC(=O)[C@H]([C@@H](C)O)NC(=O)[C@H](CC(N)=O)NC(=O)[C@@H](NC(C)=O)C(C)(C)SSC(C)(C)[C@@H](C(=O)N[C@@H](Cc2ccc(OCCN)cc2)C(=O)N[C@@H](Cc2ccc3ccccc3c2)C(=O)NC2(C(=O)N[C@@H](CCC(=O)O)C(=O)N[C@@H](CC(N)=O)C(=O)N[C@@H](Cc3cccnc3)C(=O)N(C)CC(N)=O)CCOCC2)NC1=O [IL-23 receptor antagonist peptide, Ac-[Pen]*-N-T-[W(7-Me)]-[Lys(Ac)]-[Pen]*-Phe[4-(2-aminoethoxy)]-[2-Nal]-[THP]-E-N-[3-Pal]-Sarc-NH2 (*[Pen]-[Pen]* formdisulfidebond)]
- PASI ≥90% Improvement, subjects (%) (Week 20, 100 mg BID, N=42): (61.9%)
- PASI 100% Improvement, subjects (%) (Week 20, 100 mg QD, N=43): (14.0%)
- PASI ≥75% Improvement, subjects (%) (Week 20, 100 mg QD, N=43): (60.5%)
- PASI ≥90% Improvement, subjects (%) (Week 20, 100 mg QD, N=43): (44.2%)
- PASI 100% Improvement, subjects (%) [1]: (2.9%)
- PASI ≥75% Improvement, subjects (%) [1]: (40.0%)
- PASI ≥90% Improvement, subjects (%) [1]: (14.3%)
- PASI 100% Improvement, subjects (%) (Week 24, 25 mg BID, N=41): (19.5%)
- PASI ≥75% Improvement, subjects (%) (Week 24, 25 mg BID, N=41): (61.0%)
- PASI ≥90% Improvement, subjects (%) (Week 24, 25 mg BID, N=41): (29.3%)
- PASI 100% Improvement, subjects (%) (Week 24, 25 mg QD, N=43): (16.3%)
- PASI ≥75% Improvement, subjects (%) (Week 24, 25 mg QD, N=43): (46.5%)
- PASI ≥90% Improvement, subjects (%) (Week 24, 25 mg QD, N=43): (32.6%)
- PASI 100% Improvement, subjects (%) (Week 24, 50 mg QD, N=43): (27.9%)
- PASI ≥75% Improvement, subjects (%) (Week 24, 50 mg QD, N=43): (60.5%)
- PASI ≥90% Improvement, subjects (%) (Week 24, 50 mg QD, N=43): (53.5%)
- PASI 100% Improvement, subjects (%) (Week 24, 100 mg BID, N=42): (35.7%)
- PASI ≥75% Improvement, subjects (%) (Week 24, 100 mg BID, N=42): (81.0%)
- PASI ≥90% Improvement, subjects (%) (Week 24, 100 mg BID, N=42): (69.0%)
- PASI 100% Improvement, subjects (%) (Week 24, 100 mg QD, N=43): (20.9%)
- PASI ≥75% Improvement, subjects (%) (Week 24, 100 mg QD, N=43): (69.8%)
- PASI ≥90% Improvement, subjects (%) (Week 24, 100 mg QD, N=43): (55.8%)
- PASI 100% Improvement, subjects (%) [2]: (8.6%)
- PASI ≥75% Improvement, subjects (%) [2]: (60.0%)
- PASI ≥90% Improvement, subjects (%) [2]: (22.9%)
- PASI 100% Improvement, subjects (%) (Week 28, 25 mg BID, N=41): (17.1%)
- PASI ≥75% Improvement, subjects (%) (Week 28, 25 mg BID, N=41): (61.0%)
- PASI ≥90% Improvement, subjects (%) (Week 28, 25 mg BID, N=41): (36.6%)
- PASI 100% Improvement, subjects (%) (Week 28, 25 mg QD, N=43): (18.6%)
- PASI ≥75% Improvement, subjects (%) (Week 28, 25 mg QD, N=43): (39.5%)
- PASI ≥90% Improvement, subjects (%) (Week 28, 25 mg QD, N=43): (27.9%)
- PASI 100% Improvement, subjects (%) (Week 28, 50 mg QD, N=43): (14.0%)
- PASI ≥75% Improvement, subjects (%) (Week 28, 50 mg QD, N=43): (69.8%)
- PASI ≥90% Improvement, subjects (%) (Week 28, 50 mg QD, N=43): (48.8%)
- PASI 100% Improvement, subjects (%) (Week 28, 100 mg BID, N=42): (38.1%)
- PASI ≥75% Improvement, subjects (%) (Week 28, 100 mg BID, N=42): (78.6%)
- PASI ≥90% Improvement, subjects (%) (Week 28, 100 mg BID, N=42): (61.9%)
- PASI 100% Improvement, subjects (%) (Week 28, 100 mg QD, N=43): (25.6%)
- PASI ≥75% Improvement, subjects (%) (Week 28, 100 mg QD, N=43): (65.1%)
- PASI ≥90% Improvement, subjects (%) (Week 28, 100 mg QD, N=43): (51.2%)
- PASI 100% Improvement, subjects (%) [3]: (14.3%)
- PASI ≥75% Improvement, subjects (%) [3]: (62.9%)
- PASI ≥90% Improvement, subjects (%) [3]: (22.9%)
- PASI 100% Improvement, subjects (%) (Week 32, 25 mg BID, N=41): (17.1%)
- PASI ≥75% Improvement, subjects (%) (Week 32, 25 mg BID, N=41): (53.7%)
- PASI ≥90% Improvement, subjects (%) (Week 32, 25 mg BID, N=41): (39.0%)
- PASI 100% Improvement, subjects (%) (Week 32, 25 mg QD, N=43): (18.6%)
- PASI ≥75% Improvement, subjects (%) (Week 32, 25 mg QD, N=43): (48.8%)
- PASI ≥90% Improvement, subjects (%) (Week 32, 25 mg QD, N=43): (30.2%)
- PASI 100% Improvement, subjects (%) (Week 32, 50 mg QD, N=43): (25.6%)
- PASI ≥75% Improvement, subjects (%) (Week 32, 50 mg QD, N=43): (65.1%)
- PASI ≥90% Improvement, subjects (%) (Week 32, 50 mg QD, N=43): (51.2%)
- PASI 100% Improvement, subjects (%) (Week 32, 100 mg BID, N=42): (33.3%)
- PASI ≥75% Improvement, subjects (%) (Week 32, 100 mg BID, N=42): (78.6%)
- PASI ≥90% Improvement, subjects (%) (Week 32, 100 mg BID, N=42): (66.7%)
- PASI 100% Improvement, subjects (%) (Week 32, 100 mg QD, N=43): (25.6%)
- PASI ≥75% Improvement, subjects (%) (Week 32, 100 mg QD, N=43): (69.8%)
- PASI ≥90% Improvement, subjects (%) (Week 32, 100 mg QD, N=43): (62.8%)
- PASI 100% Improvement, subjects (%) [4]: (20.0%)
- PASI ≥75% Improvement, subjects (%) [4]: (65.7%)
- PASI ≥90% Improvement, subjects (%) [4]: (40.0%)
- PASI 100% Improvement, subjects (%) (Week 40, 25 mg BID, N=41): (14.6%)
- PASI ≥75% Improvement, subjects (%) (Week 40, 25 mg BID, N=41): (53.7%)
- PASI ≥90% Improvement, subjects (%) (Week 40, 25 mg BID, N=41): (31.7%)
- PASI 100% Improvement, subjects (%) (Week 40, 25 mg QD, N=43): (11.6%)
- PASI ≥75% Improvement, subjects (%) (Week 40, 25 mg QD, N=43): (48.8%)
- PASI ≥90% Improvement, subjects (%) (Week 40, 25 mg QD, N=43): (32.6%)
- PASI 100% Improvement, subjects (%) (Week 40, 50 mg QD, N=43): (20.9%)
- PASI ≥75% Improvement, subjects (%) (Week 40, 50 mg QD, N=43): (67.4%)
- PASI ≥90% Improvement, subjects (%) (Week 40, 50 mg QD, N=43): (46.5%)
- PASI 100% Improvement, subjects (%) (Week 40, 100 mg BID, N=42): (35.7%)
- PASI ≥75% Improvement, subjects (%) (Week 40, 100 mg BID, N=42): (78.6%)
- PASI ≥90% Improvement, subjects (%) (Week 40, 100 mg BID, N=42): (64.3%)
- PASI 100% Improvement, subjects (%) (Week 40, 100 mg QD, N=43): (25.6%)
- PASI ≥75% Improvement, subjects (%) (Week 40, 100 mg QD, N=43): (69.8%)
- PASI ≥90% Improvement, subjects (%) (Week 40, 100 mg QD, N=43): (55.8%)
- PASI 100% Improvement, subjects (%) [5]: (28.6%)
- PASI ≥75% Improvement, subjects (%) [5]: (60.0%)
- PASI ≥90% Improvement, subjects (%) [5]: (45.7%)
- PASI 100% Improvement, subjects (%) (Week 52, 25 mg BID, N=41): (17.1%)
- PASI ≥75% Improvement, subjects (%) (Week 52, 25 mg BID, N=41): (58.5%)
- PASI ≥90% Improvement, subjects (%) (Week 52, 25 mg BID, N=41): (36.6%)
- PASI 100% Improvement, subjects (%) (Week 52, 25 mg QD, N=43): (14.0%)
- PASI ≥75% Improvement, subjects (%) (Week 52, 25 mg QD, N=43): (48.8%)
- PASI ≥90% Improvement, subjects (%) (Week 52, 25 mg QD, N=43): (27.9%)
- PASI 100% Improvement, subjects (%) (Week 52, 50 mg QD, N=43): (20.9%)
- PASI ≥75% Improvement, subjects (%) (Week 52, 50 mg QD, N=43): (69.8%)
- PASI ≥90% Improvement, subjects (%) (Week 52, 50 mg QD, N=43): (41.9%)
- PASI 100% Improvement, subjects (%) (Week 52, 100 mg BID, N=42): (40.5%)
- PASI ≥75% Improvement, subjects (%) (Week 52, 100 mg BID, N=42): (76.2%)
- PASI 100% Improvement, subjects (%) (Week 52, 100 mg QD, N=43): (25.6%)
- PASI ≥75% Improvement, subjects (%) (Week 52, 100 mg QD, N=43): (65.1%)
- PASI ≥90% Improvement, subjects (%) (Week 52, 100 mg QD, N=43): (51.2%)
- PASI 100% Improvement, subjects (%) [6]: (34.3%)
- PASI ≥75% Improvement, subjects (%) [6]: (65.7%)
- PASI ≥90% Improvement, subjects (%) [6]: (57.1%)
- PASI and IGA response rates (from Week 16 to Week 52): generally maintained
